Measurements: patent US6451807B1, “Methods of treating sexual dysfunction in an individual suffering from a retinal disease, class 1 congestive heart failure, or myocardial infarction using a PDE5 inhibitor” (Lilly Icos, LLC., priority 1999, dated 2002)

What was measured:
PDE1c = target: T1, PDE1c (Homo sapiens, UniProt Q14123); assay: PDE1c enzyme inhibition, IC50 determination; format: biochemical; conditions: read-out: IC50 against PDE1c
T1 construct: made in house; host or cells: Spodoptera frugiperda Sf9 cells
T1 sequence (Q14123 whole entry, species assumed): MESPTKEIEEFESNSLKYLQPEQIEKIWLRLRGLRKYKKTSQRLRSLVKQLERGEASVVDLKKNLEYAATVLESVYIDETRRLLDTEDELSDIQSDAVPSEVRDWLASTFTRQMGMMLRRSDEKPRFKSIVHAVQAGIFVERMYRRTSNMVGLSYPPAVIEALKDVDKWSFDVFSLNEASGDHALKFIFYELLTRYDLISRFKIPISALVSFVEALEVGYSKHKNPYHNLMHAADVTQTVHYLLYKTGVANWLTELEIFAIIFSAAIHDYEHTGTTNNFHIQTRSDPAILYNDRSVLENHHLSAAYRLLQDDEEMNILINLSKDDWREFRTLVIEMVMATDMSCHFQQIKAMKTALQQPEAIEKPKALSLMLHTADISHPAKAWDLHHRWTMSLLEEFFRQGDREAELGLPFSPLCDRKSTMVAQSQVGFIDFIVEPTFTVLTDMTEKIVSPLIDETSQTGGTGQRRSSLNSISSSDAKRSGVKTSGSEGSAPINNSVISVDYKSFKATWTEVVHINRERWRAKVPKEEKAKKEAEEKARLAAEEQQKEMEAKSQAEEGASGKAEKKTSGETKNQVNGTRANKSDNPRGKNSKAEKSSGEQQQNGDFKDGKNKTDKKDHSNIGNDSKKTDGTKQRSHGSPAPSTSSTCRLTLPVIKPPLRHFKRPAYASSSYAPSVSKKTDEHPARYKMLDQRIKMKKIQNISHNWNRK
Procedure: Cell pellets (5g) were thawed on ice with 20 ml of Lysis Buffer (50 mM MOPS pH 7.4, 10 μM ZnSO4, 0.1 mM CaCl2, 1 mM DTT, 2 mM benzamidine HCl, 5μg/ml each of pepstatin, leupeptin, and aprotenin). Cells were lysed by passage through a French pressure cell (SLM-Aminco) while temperatures were maintained below 10° C. The resultant cell homogenate was centrifuged at 36,000 rpm at 4° C. for 45 minutes in a Beckman ultracentrifuge using a Type TI45 rotor. The supernatant was discarded and the resultant pellet was resuspended with 40 ml of Solubilization Buffer (Lysis Buffer containing 1M NaCl, 0.1M MgCl2, 1 mM CaCl2, 20 μg/ml calmodulin, and 1% Sulfobetaine SB12 (Z3-12) by sonicating using a VibraCell tuner with a microtip for 3×30 seconds. This was performed in a crushed ice/salt mix for cooling. Following sonication, the mixture was slowly mixed for 30 minutes at 4° C. to finish solubilizing membrane bound proteins. This mixture was centrifuged in a Beckman ultracentrifuge using a type TI45 rotor at 36,000 rpm for 45 minutes. The supernatant was diluted with Lysis Buffer containing 10 μg/ml calpain inhibitor I and II. The precipitated protein was centrifuged for 20 minutes at 9,000 rpm in a Beckman JA-10 rotor. The recovered supernatant then was subjected to Mimetic Blue AP Agarose Chromatography. […]

[1] = test system: men with mild to severe erectile dysfunction; assay: Randomized, double-blind, placebo-controlled on demand study in male erectile dysfunction (Example 7); format: in vivo, human; conditions: for patients who rated their ability to maintain an erection (IIEF Question 4) during intercourse as almost always or always / patients who rated their penetration ability (IIEF Question 3) as almost always or always: at endpoint
Procedure: A third clinical study was a randomized, double-blind, placebo-controlled study using a compound of structural formula (I) (Study Drug) administered “on demand” to patients with male erectile dysfunction. The Study Drug was administered over a period of eight weeks in the treatment of male erectile dysfunction (ED). Erectile dysfunction (ED) is defined as the persistent inability to attain and/or maintain an erection adequate to permit satisfactory sexual performance. “On demand” dosing is defined as intermittent administration of Study Drug prior to expected sexual activity. The study population consisted of 212 men, at least 18 years of age, with mild to severe erectile dysfunction. The Study Drug was orally administered as tablets of coprecipitate made in accordance with Butler U.S. Pat. No. 5,985,326. […] Treatment with all nitrates, azole antifungals (e.g., ketoconazole or itraconazole), warfarin, erythromycin, or antiandrogens was not allowed at any time during the study. No other approved or experimental medications, treatments, or devices used to treat ED were allowed. Forty-one subjects were administered a placebo. The two primary efficacy variables were the ability of a subject to penetrate their partner and their ability to maintain an erection during intercourse, as measured by the International Index of Erectile Function (IIEF). The IIEF Questionnaire contains fifteen questions, and is a brief, reliable measure of erectile function. See R. C. Rosen et al., Urology, 49, pp. 822-830 (1997). Secondary efficacy variables were IIEF domain scores for erectile function, orgasmic function, sexual desire, intercourse satisfaction, and overall satisfaction; the patient's ability to achieve an erection, ability to insert their penis into their partner's vagina, completion of intercourse with ejaculation, satisfaction with the hardness of their erection, and overall satisfaction, all as measured by the Sexual Encounter Profile (SEP) diary; and a global assessment question asked at the end of the treatment period. The SEP is a patient diary instrument documenting each sexual encounter during the course of the study. The safety analysis of the study included all enrolled subjects, and was assessed by evaluating all reported adverse events, and changes in clinical laboratory values, vital signs, physical examination results, and electrocardiogram results.

[2] = test system: male erectile dysfunction; assay: Combined clinical studies, IIEF erectile function domain; format: in vivo, human
[3] = 2 to 25 mg on demand, eight weeks

With CN1CC(=O)N2[C@H](c3ccc4c(c3)OCO4)c3[nH]c4ccccc4c3C[C@@H]2C1=O [Compound 5, (6R-trans)-6-(1,3-benzodioxol-5-yl)-2,3,6,7,12,12a-hexahydro-2-methylpyrazino[1′,2′:1,6]pyrido[3,4-b]indole-1,4-dione] the IC50 (PDE1c) was 10 µM, the “patients who rated their ability to maintain an erection (IIEF Question 4) during intercourse as almost always or always” value (“patients who rated their ability” below) ([1]; 2 mg group) was 19.5% and the “patients who rated their penetration ability (IIEF Question 3) as almost always or always” value ([1]; 2 mg group) was 38.1%. For the same molecule, the “sexual performance of men with erectile dysfunction (IIEF, patient diaries, global assessment)” value ([1]; 2 mg, 5 mg, 10 mg and 25 mg taken on demand) was “significant improvement, relative to placebo”, the “patients who rated their ability” value ([1]; 5 mg group) was 32.6% and the “patients who rated their penetration ability (IIEF Question 3) as almost always or always” value ([1]; 5 mg group) was 48.8%. For the same molecule, the “patients who rated their ability” value ([1]; 10 mg group) was 39.0%, the “patients who rated their penetration ability (IIEF Question 3) as almost always or always” value ([1]; 10 mg group) was 51.2% and the “patients who rated their ability” value ([1]; 25 mg group) was 69.0%. The “patients who rated their penetration ability (IIEF Question 3) as almost always or always” value ([1]; 25 mg group) was 83.7%, the “adverse events related to color vision disturbances” value [1, 3] was “no adverse events related to color vision disturbances were reported” and the “severity of adverse events” value [1, 3] was “mild or moderate in severity”. The “change in penetration ability versus placebo (IIEF Question 3)” value ([1]; all dose levels (2, 5, 10, 25 mg)) was “statistically significant differences”, the “change in penetration ability versus placebo (comparison reported for IIEF Question 4)” value ([1]; the three higher dose levels) was “statistically significant differences” and the “treatment of male erectile dysfunction” value ([2]; combined results from clinical studies) was “effectively treats male erectile dysfunction”. For the same molecule, the “IIEF erectile function domain (change from baseline), Mean ± SD” value ([2]; unit dose 2 mg) was 3.9 ± 6.1, the “IIEF erectile function domain (change from baseline), Mean ± SD” value ([2]; unit dose 5 mg) was 6.6 ± 7.1 and the “IIEF erectile function domain (change from baseline), Mean ± SD” value ([2]; unit dose 10 mg) was 7.9 ± 6.7. The “IIEF erectile function domain (change from baseline), Mean ± SD” value ([2]; unit dose 25 mg) was 9.4 ± 7.0, the “IIEF erectile function domain (change from baseline), Mean ± SD” value ([2]; unit dose 50 mg) was 9.8 ± 5.5 and the “IIEF erectile function domain (change from baseline), Mean ± SD” value ([2]; unit dose 100 mg) was 8.4 ± 6.1.
